Source: ChEMBL document CHEMBL3407491, “Synthesis, characterization and in vitro photodynamic antimicrobial activity of basic amino acid-porphyrin conjugates” (Eur J Med Chem, 2015)
In brackets after ≈: the same amount, converted by molar mass. Activity calls are given as the source filed them. The rule behind the calls is not given here.

Legend:
[1] = Octanol water partition coefficient, log P of the compound by reverse-phase thin-layer chromatography; assay type: physicochemical
[2] = system: Pseudomonas aeruginosa; test: Antibacterial activity against Pseudomonas aeruginosa ATCC 27853 incubated in dark for 30 mins measured after 24 hrs; assay type: functional
[3] = system: Staphylococcus aureus; test: Antibacterial activity against methicillin-resistant Staphylococcus aureus incubated in dark for 30 mins measured after 24 hrs; assay type: functional
[4] = system: Escherichia coli; test: Antibacterial activity against Escherichia coli ATCC 25922 assessed as log reduction in bacterial count at 10 uM incubated in dark for 30 mins followed by exposure to light fluences at 650 nm and 6 J/cm2 and then incubated overnight measured after 24 hrs; assay type: functional
[5] = system: Pseudomonas aeruginosa; test: Antibacterial activity against Pseudomonas aeruginosa ATCC 27853 incubated in dark for 30 mins and grown for 24 hrs followed by further incubation on LB agar plates for another 24 hrs; assay type: functional
[6] = system: Escherichia coli; test: Antibacterial activity against Escherichia coli ATCC 25922 incubated in dark for 30 mins measured after 24 hrs; assay type: functional
[7] = system: Staphylococcus aureus; test: Antibacterial activity against methicillin-resistant Staphylococcus aureus incubated in dark for 30 mins and grown for 24 hrs followed by further incubation on LB agar plates for another 24 hrs; assay type: functional
[8] = system: Escherichia coli; test: Antibacterial activity against Escherichia coli ATCC 25922 incubated in dark for 30 mins followed by exposure to light fluences at 650 nm and 6 J/cm2 and then incubated overnight measured after 24 hrs; assay type: functional; conditions: ATCC 25922, light or radiation study
[9] = system: Escherichia coli; test: Antibacterial activity against Escherichia coli ATCC 25922 incubated in dark for 30 mins and grown for 24 hrs followed by further incubation on LB agar plates for another 24 hrs; assay type: functional
[10] = system: Pseudomonas aeruginosa; test: Bactericidal activity against Pseudomonas aeruginosa ATCC 27853 incubated in dark for 30 mins followed by exposure to light fluences at 650 nm and 6 J/cm2 and then incubated overnight followed by further incubation on LB agar plates for another 24 hrs; assay type: functional; conditions: ATCC 27853, light or radiation study
[11] = system: Pseudomonas aeruginosa; test: Antibacterial activity against Pseudomonas aeruginosa ATCC 27853 assessed as log reduction in bacterial count at 10 uM incubated in dark for 30 mins followed by exposure to light fluences at 650 nm and 6 J/cm2 and then incubated overnight measured after 24 hrs; assay type: functional
[12] = system: Staphylococcus aureus; test: Bactericidal activity against methicillin-resistant Staphylococcus aureus incubated in dark for 30 mins followed by exposure to light fluences at 650 nm and 6 J/cm2 and then incubated overnight followed by further incubation on LB agar plates for another 24 hrs; assay type: functional; conditions: light or radiation study
[13] = system: Pseudomonas aeruginosa; test: Antibacterial activity against Pseudomonas aeruginosa ATCC 27853 incubated in dark for 30 mins followed by exposure to light fluences at 650 nm and 6 J/cm2 and then incubated overnight measured after 24 hrs; assay type: functional; conditions: ATCC 27853, light or radiation study
[14] = system: Staphylococcus aureus; test: Antibacterial activity against methicillin-resistant Staphylococcus aureus assessed as log reduction in bacterial count at 10 uM incubated in dark for 30 mins followed by exposure to light fluences at 650 nm and 6 J/cm2 and then incubated overnight measured after 24 hrs; assay type: functional
[15] = Singlet oxygen generation of the compound exposed to 4.2 mW/cm2 light energy density assessed as singlet oxygen quantum yield measured at 410 nm in 10 seconds intervals of irradiation at 0.2 uM by DPBF scavenger based assay
[16] = system: Staphylococcus aureus; test: Antibacterial activity against methicillin-resistant Staphylococcus aureus incubated in dark for 30 mins followed by exposure to light fluences at 650 nm and 6 J/cm2 and then incubated overnight measured after 24 hrs; assay type: functional; conditions: light or radiation study
[17] = system: Escherichia coli; test: Bactericidal activity against Escherichia coli ATCC 25922 incubated in dark for 30 mins followed by exposure to light fluences at 650 nm and 6 J/cm2 and then incubated overnight followed by further incubation on LB agar plates for another 24 hrs; assay type: functional; conditions: ATCC 25922, light or radiation study
[18] = Photostability at 2 x 10^-5 mol/L exposed to 4.2 mW/cm2 light energy density assessed as change in absorption spectra after 30 mins post irradiation; assay type: physicochemical; conditions: 0.5 h, 20 µM
[19] = Toxicity against human […] cells assessed as reduction in cell viability by MTT assay; assay type: cell-based
[20] = Toxicity against human […] cells irradiated with 6 J/cm2 radiation assessed as cell viability at 7.81 uM by MTT assay; assay type: cell-based; conditions: read-out: Activity
[21] = system: Escherichia coli; test: Drug uptake in Escherichia coli ATCC 25922 at 12.5 uM by confocal laser scanning microscopy; assay type: ADME, organism-based; conditions: in vivo
[22] = system: Pseudomonas aeruginosa; test: Drug uptake in Pseudomonas aeruginosa ATCC 27853 at 12.5 uM by confocal laser scanning microscopy; assay type: ADME, organism-based; conditions: in vivo
[23] = system: Staphylococcus aureus; test: Drug uptake in methicillin-resistant Staphylococcus aureus at 12.5 uM by confocal laser scanning microscopy; assay type: ADME, organism-based; conditions: in vivo
[24] = system: Pseudomonas aeruginosa; test: Antibacterial activity against Pseudomonas aeruginosa ATCC 27853 assessed as log reduction in bacterial count at 3.5 uM incubated in dark for 30 mins followed by exposure to light fluences at 650 nm and 6 J/cm2 and then incubated overnight measured after 24 hrs; assay type: functional
[25] = Stability in mouse serum assessed as compound remaining after 24 hrs by RP-HPLC method; assay type: ADME; conditions: read-out: Stability
[26] = system: Escherichia coli; test: Antibacterial activity against Escherichia coli ATCC 25922 assessed as log reduction in bacterial count at 7.81 uM incubated in dark for 30 mins followed by exposure to light fluences at 650 nm and 6 J/cm2 and then incubated overnight measured after 24 hrs; assay type: functional, organism-based
[27] = system: Escherichia coli; test: Antibacterial activity against Escherichia coli ATCC 25922 assessed as log reduction in bacterial count at 2 uM incubated in dark for 30 mins followed by exposure to light fluences at 650 nm and 6 J/cm2 and then incubated overnight measured after 24 hrs; assay type: functional
[28] = system: Pseudomonas aeruginosa; test: Antibacterial activity against Pseudomonas aeruginosa ATCC 27853 at 0.49 uM to 7.8 uM incubated in dark for 30 mins followed by exposure to light fluences at 650 nm and 6 J/cm2 and then incubated overnight measured after 24 hrs; assay type: functional, organism-based
[29] = Toxicity against human […] cells assessed as cell viability at 3.91 to 62.5 uM under dark conditions by MTT assay; assay type: cell-based; conditions: read-out: Activity
[30] = system: Staphylococcus aureus; test: Antibacterial activity against methicillin-resistant Staphylococcus aureus assessed as log reduction in bacterial count at 2 uM incubated in dark for 30 mins followed by exposure to light fluences at 650 nm and 6 J/cm2 and then incubated overnight measured after 24 hrs; assay type: functional
[31] = system: Staphylococcus aureus; test: Antibacterial activity against methicillin-resistant Staphylococcus aureus at 0.49 uM to 7.8 uM incubated in dark for 30 mins followed by exposure to light fluences at 650 nm and 6 J/cm2 and then incubated overnight measured after 24 hrs; assay type: functional, organism-based
[32] = system: Escherichia coli; test: Antibacterial activity against Escherichia coli ATCC 25922 at 3.91 uM to 62.50 uM incubated in dark for 30 mins followed by exposure to light fluences at 650 nm and 6 J/cm2 and then incubated overnight measured after 24 hrs; assay type: functional, organism-based
[33] = system: Pseudomonas aeruginosa; test: Antibacterial activity against Pseudomonas aeruginosa ATCC 27853 assessed as log reduction in bacterial count at 7.81 uM incubated in dark for 30 mins followed by exposure to light fluences at 650 nm and 6 J/cm2 and then incubated overnight measured after 24 hrs; assay type: functional, organism-based
[34] = system: Pseudomonas aeruginosa; test: Antibacterial activity against Pseudomonas aeruginosa ATCC 27853 at 3.91 uM to 62.50 uM incubated in dark for 30 mins followed by exposure to light fluences at 650 nm and 6 J/cm2 and then incubated overnight measured after 24 hrs; assay type: functional, organism-based
[35] = system: Escherichia coli; test: Antibacterial activity against Escherichia coli ATCC 25922 at 0.49 uM to 7.8 uM incubated in dark for 30 mins followed by exposure to light fluences at 650 nm and 6 J/cm2 and then incubated overnight measured after 24 hrs; assay type: functional, organism-based

| SMILES | logP [1] | MIC [2] [µM] | MIC [3] [µM] | log reduction in bacterial count [4] | MBC [5] [µM] | MIC [6] [µM] | MBC [7] [µM] | MIC [8] [µM] | MBC [9] [µM] | MBC [10] [µM] | log reduction in bacterial count [11] | MBC [12] [µM] | MIC [13] [µM] | Log reduction in bacterial count [14] | Activity [15] | MIC [16] [µM] | MBC [17] [µM] | Activity [18] [%] | Drug uptake [21] | Drug uptake [22] | also measured |
| --- | --- | --- | --- | --- | --- | --- | --- | --- | --- | --- | --- | --- | --- | --- | --- | --- | --- | --- | --- | --- | --- |
| NCCCC[C@H](N)C(=O)Nc1ccc(-c2c3nc(c(-c4ccc(NC(=O)[C@@H](N)CCCCN)cc4)c4ccc([nH]4)c(-c4ccccc4)c4nc(c(-c5ccccc5)c5ccc2[nH]5)C=C4)C=C3)cc1 | 1.39 | 62.5 (≈ 56.3 µg/mL) | 62.5 (≈ 56.3 µg/mL) | 2 | 125 (≈ 113 µg/mL) | 125 (≈ 113 µg/mL) | 125 (≈ 113 µg/mL) | 31.2 (≈ 28.2 µg/mL) | 250 (≈ 225 µg/mL) | 62.5 (≈ 56.3 µg/mL) | >5 | 62.5 (≈ 56.3 µg/mL) | 31.2 (≈ 28.2 µg/mL) | 3 | 0.65 | 31.2 (≈ 28.2 µg/mL) | 62.5 (≈ 56.3 µg/mL) | < 20 | – | – | – |
| NCCCC[C@H](N)C(=O)Nc1ccc(-c2c3nc(c(-c4ccc(NC(=O)[C@@H](N)CCCCN)cc4)c4ccc([nH]4)c(-c4ccc(NC(=O)[C@@H](N)CCCCN)cc4)c4nc(c(-c5ccc(NC(=O)[C@@H](N)CCCCN)cc5)c5ccc2[nH]5)C=C4)C=C3)cc1 | 0.9 | 250 (≈ 297 µg/mL) | 62.5 (≈ 74.2 µg/mL) | – | > 500 | 62.5 (≈ 74.2 µg/mL) | 125 (≈ 148 µg/mL) | 1.95 (≈ 2.32 µg/mL) | 125 (≈ 148 µg/mL) | 15.6 (≈ 18.5 µg/mL) | – | 7.81 (≈ 9.27 µg/mL) | 7.81 (≈ 9.27 µg/mL) | – | 0.95 | 3.91 (≈ 4.64 µg/mL) | 3.91 (≈ 4.64 µg/mL) | < 20 | Active | Active | Activity [19]: Dose-dependent effect; viability at 7.81 µM [20]: > 85%; Drug uptake [23]: Active; FC [24]: 3; remaining at 24 h [25]: 85%; Activity [26]: Active; FC [27]: 3; Activity [28]: Dose-dependent effect; viability at 62.5 µM [29]: > 90%; FC [30]: 3; Activity [31]: Dose-dependent effect; Activity [32]: Dose-dependent effect; Activity [33]: Active; Activity [34]: Dose-dependent effect; Activity [35]: Dose-dependent effect |
| NCCCC[C@H](N)C(=O)Nc1ccc(-c2c3nc(c(-c4ccc(NC(=O)[C@@H](N)CCCCN)cc4)c4ccc([nH]4)c(-c4ccc(NC(=O)[C@@H](N)CCCCN)cc4)c4nc(c(-c5ccc(N)cc5)c5ccc2[nH]5)C=C4)C=C3)cc1 | 1.21 | 250 (≈ 265 µg/mL) | 125 (≈ 132 µg/mL) | 3 | > 500 | 125 (≈ 132 µg/mL) | 500 (≈ 530 µg/mL) | 15.6 (≈ 16.5 µg/mL) | > 500 | 62.5 (≈ 66.2 µg/mL) | 1 | 62.5 (≈ 66.2 µg/mL) | 31.2 (≈ 33.1 µg/mL) | 3 | 0.73 | 31.2 (≈ 33.1 µg/mL) | 31.2 (≈ 33.1 µg/mL) | < 20 | – | – | – |
| NCCCC[C@H](N)C(=O)Nc1ccc(-c2c3nc(c(-c4ccc(N)cc4)c4ccc([nH]4)c(-c4ccc(NC(=O)[C@@H](N)CCCCN)cc4)c4nc(c(-c5ccc(N)cc5)c5ccc2[nH]5)C=C4)C=C3)cc1 | 1.3 | 250 (≈ 233 µg/mL) | 125 (≈ 116 µg/mL) | 2 | 500 (≈ 466 µg/mL) | 250 (≈ 233 µg/mL) | 250 (≈ 233 µg/mL) | 15.6 (≈ 14.6 µg/mL) | 500 (≈ 466 µg/mL) | 31.2 (≈ 29.1 µg/mL) | >5 | 15.6 (≈ 14.6 µg/mL) | 15.6 (≈ 14.6 µg/mL) | 3 | 0.79 | 7.81 (≈ 7.27 µg/mL) | 31.2 (≈ 29.1 µg/mL) | < 20 | – | – | – |
| NCCCC[C@H](N)C(=O)Nc1ccc(-c2c3nc(c(-c4ccccc4)c4ccc([nH]4)c(-c4ccc(NC(=O)[C@@H](N)CCCCN)cc4)c4nc(c(-c5ccccc5)c5ccc2[nH]5)C=C4)C=C3)cc1 | 1.37 | 62.5 (≈ 56.3 µg/mL) | 125 (≈ 113 µg/mL) | 2 | 125 (≈ 113 µg/mL) | 62.5 (≈ 56.3 µg/mL) | 250 (≈ 225 µg/mL) | 15.6 (≈ 14.1 µg/mL) | 125 (≈ 113 µg/mL) | 62.5 (≈ 56.3 µg/mL) | >5 | 31.2 (≈ 28.2 µg/mL) | 31.2 (≈ 28.2 µg/mL) | 3 | 0.57 | 15.6 (≈ 14.1 µg/mL) | 31.2 (≈ 28.2 µg/mL) | < 20 | – | – | – |
| NCCCC[C@H](N)C(=O)Nc1ccc(-c2c3nc(c(-c4ccccc4)c4ccc([nH]4)c(-c4ccccc4)c4nc(c(-c5ccccc5)c5ccc2[nH]5)C=C4)C=C3)cc1 | 1.69 | 500 (≈ 379 µg/mL) | > 500 | – | > 500 | > 500 | > 500 | 500 (≈ 379 µg/mL) | > 500 | 500 (≈ 379 µg/mL) | – | > 500 | 250 (≈ 189 µg/mL) | – | 0.83 | 500 (≈ 379 µg/mL) | > 500 | < 20 | Not Active | Not Active | Drug uptake [23]: Not Active |
